Data on 19 molecules can be found in patent US20240217989A1, “Heteroaryl Fluoroalkenes As DGK Inhibitors” (Incyte Corporation, priority 2022, published 2024).

One experiment has as its target T1, DGKα (Homo sapiens, UniProt P23743).
T1 construct: His; purchased Signal Chem D21-10BH
The experiment can be described thus: In vitro DGKα inhibition assay (ADP-Glo). It is filed as biochemical. Conditions: His-tagged human recombinant enzyme; 0.1 nM DGKα, 50 μM ATP, 20 μM DLG; 90 minute incubation; ADP-Glo luminescence. Here is the method:
(§1) The DGKα and DGKζ biochemical reactions were performed using His-tagged human recombinant enzymes (Signal Chem, DGKα, #D21-10BH; DGKζ, #D30-10H)) and DLG (Dilauroyl-sn-glycerol) lipid substrate (Signal Chem, #D430-59). ADP-Glo assay was performed using ADP-Glo™ kinase Assay kit (Promega, #V9104). The reactions were carried out in assay buffer containing 40 mM Tris, pH 7.5, 0.1% CHAPS, 0.1% Prionex, 40 mM NaCl, 5 mM MgCl2, 1 mM CaCl2, and 1 mM DTT. DGKα reactions contained 0.1 nM DGKα, 50 μM ATP, and 20 μM DLG. And DGKζ reactions contained 0.4 nM DGKζ, 30 μM ATP, and 20 μM DLG. For compound inhibition studies, 40 nL test compound in DMSO was added to wells of white polystyrene plates in 384-well (Greiner, #784075) or 1536-well format (Greiner, #782075). Compounds were added with top concentration of 2 mM with 11 point, 3-fold dilution series. Enzyme solution (contains 2× DGK enzyme concentration in 1× assay buffer) was added to the plate in 2 μL/well volume, followed by 2 μL/well of substrate solution (contains 2× concentration of ATP and DLG substrate in 1× assay buffer). Plates were then centrifuged for 1 min at 1200 RPM and sealed or lidded. For 4 μL reaction volume, test compounds were therefore diluted 100× to final top concentration of 20 μM. After 90 minute incubation, reactions were quenched by addition of 2 μL/well Promega ADP-Glo Reagent, followed by centrifugation and lidding. After 60 min incubation, 2 μL/well Promega Kinase Detection Reagent was added, plates centrifuged, and incubated for 30 min. Plates were then read using Luminescence method on BMG PHERAstar FSX plate reader. Percent inhibition was calculated and IC50s were determined using 4-parameter fit in Genedata Screener. Labcyte Echo acoustic dispenser was used for compound addition, and Formulatrix Tempest liquid handler was used for all reagent dispenses.
Background: ADP-Glo turns the ADP formed in a reaction into a luminescent signal.

For a further experiment, the target named is DGKζ (Homo sapiens, UniProt Q13574). The experiment is described as follows: In vitro DGKζ inhibition assay (ADP-Glo). It is filed as biochemical. Conditions: His-tagged human recombinant enzyme; 0.4 nM DGKζ, 30 μM ATP, 20 μM DLG; 90 minute incubation; ADP-Glo luminescence. Here is the method:
as §1

T1 sequence (P23743 whole entry): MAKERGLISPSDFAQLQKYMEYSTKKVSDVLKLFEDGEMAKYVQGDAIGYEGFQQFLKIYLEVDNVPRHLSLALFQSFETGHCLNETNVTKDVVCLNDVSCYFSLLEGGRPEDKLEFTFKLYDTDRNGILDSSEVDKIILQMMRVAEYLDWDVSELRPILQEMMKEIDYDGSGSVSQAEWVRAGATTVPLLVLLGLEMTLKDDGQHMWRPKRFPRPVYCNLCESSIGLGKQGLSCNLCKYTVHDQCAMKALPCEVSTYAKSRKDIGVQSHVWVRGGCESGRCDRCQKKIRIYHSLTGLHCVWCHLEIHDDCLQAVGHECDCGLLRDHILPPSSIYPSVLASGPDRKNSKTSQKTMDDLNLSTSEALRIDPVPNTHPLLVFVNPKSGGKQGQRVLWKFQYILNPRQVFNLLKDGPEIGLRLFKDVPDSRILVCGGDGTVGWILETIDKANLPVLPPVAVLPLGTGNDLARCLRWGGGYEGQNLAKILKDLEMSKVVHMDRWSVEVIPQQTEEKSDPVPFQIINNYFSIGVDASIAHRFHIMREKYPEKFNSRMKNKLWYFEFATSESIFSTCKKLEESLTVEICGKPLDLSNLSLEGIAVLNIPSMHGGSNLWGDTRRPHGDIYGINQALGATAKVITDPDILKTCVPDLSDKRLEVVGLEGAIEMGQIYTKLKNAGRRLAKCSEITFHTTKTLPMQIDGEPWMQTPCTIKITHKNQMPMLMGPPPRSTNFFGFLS
Chain of DGKζ (Q13574 whole entry): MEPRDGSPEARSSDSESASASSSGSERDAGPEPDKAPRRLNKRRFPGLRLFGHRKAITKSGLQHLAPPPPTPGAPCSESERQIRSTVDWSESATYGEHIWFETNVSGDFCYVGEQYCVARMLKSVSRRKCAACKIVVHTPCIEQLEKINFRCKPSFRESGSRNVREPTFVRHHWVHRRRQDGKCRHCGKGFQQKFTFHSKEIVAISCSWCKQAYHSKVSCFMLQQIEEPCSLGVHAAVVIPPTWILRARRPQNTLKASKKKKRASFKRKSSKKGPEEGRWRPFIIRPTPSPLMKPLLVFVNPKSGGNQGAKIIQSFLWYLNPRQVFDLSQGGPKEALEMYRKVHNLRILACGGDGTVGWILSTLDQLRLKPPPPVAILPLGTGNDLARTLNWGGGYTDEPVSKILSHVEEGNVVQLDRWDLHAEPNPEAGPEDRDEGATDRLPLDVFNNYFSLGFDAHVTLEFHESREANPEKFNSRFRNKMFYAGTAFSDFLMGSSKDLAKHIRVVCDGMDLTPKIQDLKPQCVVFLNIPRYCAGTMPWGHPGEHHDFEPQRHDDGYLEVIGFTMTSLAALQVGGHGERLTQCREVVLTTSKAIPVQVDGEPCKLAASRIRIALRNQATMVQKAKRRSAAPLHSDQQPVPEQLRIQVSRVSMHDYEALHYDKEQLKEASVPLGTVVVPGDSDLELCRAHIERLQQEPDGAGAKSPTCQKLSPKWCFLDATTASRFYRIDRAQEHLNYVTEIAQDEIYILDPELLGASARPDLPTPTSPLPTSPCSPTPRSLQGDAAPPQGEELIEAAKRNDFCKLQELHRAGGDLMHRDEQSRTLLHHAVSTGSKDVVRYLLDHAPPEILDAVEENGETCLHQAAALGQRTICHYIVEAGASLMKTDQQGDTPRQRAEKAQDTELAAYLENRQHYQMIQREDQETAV

By IC50 is commonly meant the concentration at which inhibition is half-maximal. As to `[2H]c1c([2H])c([2H])c(Oc2ccc(/C=C(\F)c3cncc(N4CC(F)(F)C4)n3)c(N3CCCC4(CCN(CC5CC5)CC4)C3)c2C(F)(F)F)c([2H])c1[2H]` [Example 17, (Z)-9-(Cyclopropylmethyl)-2-(6-(2-(6-(3,3-difluoroazetidin-1-yl)pyrazin-2-yl)-2-fluorovinyl)-3-(phenoxy-d5)-2-(trifluoromethyl)phenyl)-2,9-diazaspiro[5.5]undecane], the IC50 at DGKα and on DGKζ was at most 20 nM each time.

In the case of `F/C(=C\c1ccc(OC2CCCCC2)c(C(F)(F)F)c1N1CCCC2(CCN(CC3CC3)CC2)C1)c1nccc(-c2ccnnc2)n1` [Example 50, (Z)-2-(3-(Cyclohexyloxy)-6-(2-fluoro-2-(4-(pyridazin-4-yl)pyrimidin-2-yl)vinyl)-2-(trifluoromethyl)phenyl)-9-(cyclopropylmethyl)-2,9-diazaspiro[5.5]undecane], the IC50 on DGKα and at DGKζ was at most 20 nM in each case.

As for `F/C(=C\c1ccc(Oc2ccccc2F)c(C(F)(F)F)c1N1CCCC2(CCN(CC3CC3)CC2)C1)c1cncc(-c2cnsc2)n1` [Example 56, (Z)-4-(6-(2-(2-(9-(Cyclopropylmethyl)-2,9-diazaspiro[5.5]undecan-2-yl)-4-(2-fluorophenoxy)-3-(trifluoromethyl)phenyl)-1-fluorovinyl)pyrazin-2-yl)isothiazole], the half-maximal inhibitory concentration (IC50) on DGKα and on DGKζ was at most 20 nM in each case.

In the case of `CCN1CCC2(CCCN(c3c(/C=C(\F)c4nccc(-c5ccnnc5)n4)ccc(Oc4ncccc4F)c3C(F)(F)F)C2)CC1` [Example 32, (Z)-9-Ethyl-2-(6-(2-fluoro-2-(4-(pyridazin-4-yl)pyrimidin-2-yl)vinyl)-3-((3-fluoropyridin-2-yl)oxy)-2-(trifluoromethyl)phenyl)-2,9-diazaspiro[5.5]undecane], the IC50 on DGKα and on DGKζ was at most 20 nM in each case.

Turning to `NC[C@@H]1CCCN(c2c(/C=C(\F)c3nccc(-c4ccnnc4)n3)ccc(Oc3ccccc3)c2C(F)(F)F)C1` [Example 43, (S,Z)-(1-(6-(2-Fluoro-2-(4-(pyridazin-4-yl)pyrimidin-2-yl)vinyl)-3-phenoxy-2-(trifluoromethyl)phenyl)piperidin-3-yl)methanamine], the IC50 at DGKα and at DGKζ was at most 20 nM each time.

In the case of `F/C(=C\c1ccc(Oc2cccc(F)c2F)c(C(F)(F)F)c1N1CCCC2(CCN(CC3CC3)CC2)C1)c1cncc(-c2ccns2)n1` [Example 49, (Z)-5-(6-(2-(2-(9-(Cyclopropylmethyl)-2,9-diazaspiro[5.5]undecan-2-yl)-4-(2,3-difluorophenoxy)-3-(trifluoromethyl)phenyl)-1-fluorovinyl)pyrazin-2-yl)isothiazole], the IC50 on DGKα and on DGKζ was at most 20 nM each time.

Regarding `CCN1CCC2(CCCN(c3c(/C=C(\F)c4cccc(-c5ccnnc5)n4)ccc(Oc4ncccc4F)c3C(F)(F)F)C2)CC1` [Example 33, (Z)-9-Ethyl-2-(6-(2-fluoro-2-(6-(pyridazin-4-yl)pyridin-2-yl)vinyl)-3-((3-fluoropyridin-2-yl)oxy)-2-(trifluoromethyl)phenyl)-2,9-diazaspiro[5.5]undecane], the IC50 on DGKα and on DGKζ was at most 20 nM throughout.

For the molecule `COc1cc(F)ccc1Oc1ccc(/C=C(\F)c2nccc(-c3ccnnc3)n2)c(N2CCC[C@@H](CN)C2)c1Cl` [Example 6, (S,Z)-(1-(2-Chloro-6-(2-fluoro-2-(4-(pyridazin-4-yl)pyrimidin-2-yl)vinyl)-3-(4-fluoro-2-methoxyphenoxy)phenyl)piperidin-3-yl)methanamine], the IC50 at DGKα and on DGKζ was at most 20 nM each time.

Turning to `F/C(=C\c1ccc(Oc2ccccc2)c(C(F)(F)F)c1N1CCCC2(CCN(C3CCC3)CC2)C1)c1nccc(-c2ccnnc2)n1` [Example 30, (Z)-9-Cyclobutyl-2-(6-(2-fluoro-2-(4-(pyridazin-4-yl)pyrimidin-2-yl)vinyl)-3-phenoxy-2-(trifluoromethyl)phenyl)-2,9-diazaspiro[5.5]undecane], the IC50 at DGKα and at DGKζ was at most 20 nM each time.

Consider `CCN1CCC2(CCCN(c3c(/C=C(\F)c4nccc(-c5cnsc5)n4)ccc(Oc4ccccc4F)c3C(F)(F)F)C2)CC1` [Example 46, (Z)-4-(2-(2-(2-(9-Ethyl-2,9-diazaspiro[5.5]undecan-2-yl)-4-(2-fluorophenoxy)-3-(trifluoromethyl)phenyl)-1-fluorovinyl)pyrimidin-4-yl)isothiazole], for which the IC50 at DGKα and at DGKζ was at most 20 nM throughout.

For `[2H]c1c([2H])c([2H])c(Oc2ccc(/C=C(\F)c3cncc(N4CC(F)(F)C4)n3)c(N3CCCC4(CCN(CC)CC4)C3)c2C(F)(F)F)c([2H])c1[2H]` [Example 18, (Z)-2-(6-(2-(6-(3,3-Difluoroazetidin-1-yl)pyrazin-2-yl)-2-fluorovinyl)-3-(phenoxy-d5)-2-(trifluoromethyl)phenyl)-9-ethyl-2,9-diazaspiro[5.5]undecane], the concentration for half-maximal inhibition (IC50) on DGKα and at DGKζ was at most 20 nM each time.

Consider `COCCN1CCC2(CC1)CN(c1c(/C=C(\F)c3nccc(-c4ccnnc4)n3)ccc(Oc3ccccc3)c1C(F)(F)F)CCO2` [Example 25, (Z)-4-(6-(2-Fluoro-2-(4-(pyridazin-4-yl)pyrimidin-2-yl)vinyl)-3-phenoxy-2-(trifluoromethyl)phenyl)-9-(2-methoxyethyl)-1-oxa-4,9-diazaspiro[5.5]undecane], for which the IC50 on DGKα and on DGKζ was at most 20 nM each time.

`CCN1CCC2(CC1)CN(c1c(/C=C(\F)c3cncc(-c4ccnnc4)n3)ccc(Oc3cccc(F)c3)c1C(F)(F)F)CCO2` [Example 34, (Z)-9-Ethyl-4-(6-(2-fluoro-2-(6-(pyridazin-4-yl)pyrazin-2-yl)vinyl)-3-(3-fluorophenoxy)-2-(trifluoromethyl)phenyl)-1-oxa-4,9-diazaspiro[5.5]undecane]: the IC50 on DGKα and at DGKζ was at most 20 nM throughout.

As for `CN(CCCN)c1c(/C=C(\F)c2cccc(-c3ccnnc3)n2)ccc(Oc2ccccc2)c1C(F)(F)F` [Example 5, (Z)-N1-(6-(2-Fluoro-2-(6-(pyridazin-4-yl)pyridin-2-yl)vinyl)-3-phenoxy-2-(trifluoromethyl)phenyl)-N1-methylpropane-1,3-diamine], the IC50 on DGKα is at most 20 nM; at DGKζ, 20 to 200 nM.

As to `F/C(=C\c1ccc(Oc2ccccc2F)c(C(F)(F)F)c1N1CCCC2(CCN(CC3CC3)CC2)C1)c1nccc(-c2cnsc2)n1` [Example 55, (Z)-4-(2-(2-(2-(9-(Cyclopropylmethyl)-2,9-diazaspiro[5.5]undecan-2-yl)-4-(2-fluorophenoxy)-3-(trifluoromethyl)phenyl)-1-fluorovinyl)pyrimidin-4-yl)isothiazole], the concentration for half-maximal inhibition (IC50) on DGKα and at DGKζ was at most 20 nM in each case.

On to `F/C(=C\c1ccc(Oc2ccccc2F)c(C(F)(F)F)c1N1CCOC2(CCN(CC3CC3)CC2)C1)c1cncc(-c2ccnnc2)n1` [Example 36, (Z)-9-(Cyclopropylmethyl)-4-(6-(2-fluoro-2-(6-(pyridazin-4-yl)pyrazin-2-yl)vinyl)-3-(2-fluorophenoxy)-2-(trifluoromethyl)phenyl)-1-oxa-4,9-diazaspiro[5.5]undecane], for which the IC50 on DGKα is 20 to 200 nM; on DGKζ, at most 20 nM.

For `F/C(=C\c1ccc(Oc2ccccc2)c(C(F)(F)F)c1N1CCOC2(CCNCC2)C1)c1cncc(-c2ccnnc2)n1` [Example 9, (Z)-4-(6-(2-Fluoro-2-(6-(pyridazin-4-yl)pyrazin-2-yl)vinyl)-3-phenoxy-2-(trifluoromethyl)phenyl)-1-oxa-4,9-diazaspiro[5.5]undecane], the IC50 on DGKα and at DGKζ was at most 20 nM in each case.

In the case of `NC[C@@H]1CCCN(c2c(/C=C(\F)c3cncc(-c4ccns4)n3)ccc(Oc3ccccc3F)c2C(F)(F)F)C1` [Example 4, (S,Z)-(1-(6-(2-Fluoro-2-(6-(isothiazol-5-yl)pyrazin-2-yl)vinyl)-3-(2-fluorophenoxy)-2-(trifluoromethyl)phenyl)piperidin-3-yl)methanamine], the IC50 at DGKζ was at most 20 nM.

Regarding `NC[C@H]1CCCN1c1c(/C=C(\F)c2cncc(-c3ccnnc3)n2)ccc(Oc2ccccc2)c1Cl` [Example 12, (R,Z)-(1-(2-Chloro-6-(2-fluoro-2-(6-(pyridazin-4-yl)pyrazin-2-yl)vinyl)-3-phenoxyphenyl)pyrrolidin-2-yl)methanamine], at DGKζ, the IC50 was at most 20 nM.
